Source: PMC4197335, “Cancer-Selective Targeting of the NF-κB Survival Pathway with GADD45β/MKK7 Inhibitors” (Cancer Cell, 2014)
≈ marks a conversion by molar mass, not a printed value.

Tests used:
[1] = pharmacokinetics after single intravenous injection
Method: The pharmacokinetic analyses of DTP3 and z-DTP2 were outsourced. Additional details are provided in Supplemental Experimental Procedures. […]
(§1) Pharmacokinetic Anal yses
In vitro and in vivo pharmacok inetic analyses were outsourced to Cypr ot ex (http://www.c yprotex.com/home/) (Figure 7A, Tables S6). In vitro pharmacok inetic assays were perf ormed according to established, in- house protocols and included: plasma stability (human), thermodynamic solubility (PBS pH 7.4, at 37 °C f or 14 days), microsomal stability (human), plasma protein binding (PPB; mouse and human), and distribution coeff icient (LogD). In vivo pharmacok inetic […]
analyses were also perf ormed at Cyprotex according to established, in- house protocols. Brief ly, the peptides were dissolved in PBS and administered by single intravenous injection t o CD1 male mice at the dose of 10 mg/kg (25 -30 g of total body weight; n=3 mice per time point per compound) . Blood samples were collected in heparinized tubes at up to 7 tim e points after this injection (i.e. 0.08, 0.25, 0.5, 1, 2, 4 and 8 hr), and the plasma concentrations of the test peptide were determined at each time point by LC-MS/ MS, using a f ive- point standard curve covering a peptide concentration range from 3 to 3,000 ng/mL. Standard curves were prepared using blank plasma matrices and treated in the same manner as the test samples. The main pharmacok inetic parameters determined in these analyses were: terminal half-lif e (t 1/2 ), plasma clearance (CL), volume of distribution (V d ), and area under the plasma concentration versus time curve (AUC) (Figure 7A, Table S6). Values were calculated from the data of the peptide plasma concentration versus time curves using a non-compartmental model analysis, as described elsewhere (Groulx, 2006; Landaw and Di Stef ano 3rd, 1982) . […]

[2] = subcutaneous U266 myeloma xenograft (plasmacytoma model); type: in vivo, mice; conditions: male, NOD/SCID (NOD.CB17-Prkdcscid/IcrCrl), mouse, plasma, sc; continual infusion 14.5 mg/kg/day; SEM, n=16; read-out: plasma concentration at the steady state
[3] = distribution coefficient (LogD); type: physicochemical
Description: (§2) Pharmacophore Model Building
(§3) The pharmacophore predictive
(§4) Broad- Panel Kinase Profiling
(§5) according to in-house protocols therein.
as §1
(§6) In vitro pharmacok inetic assays were […]

[4] = thermodynamic solubility; type: physicochemical; conditions: in PBS, pH 7.4, for 14 days at 37 °C
Description: as §2, §3, §4, §5, §1, §6

**Q.** Which “predicted dose required to achieve the therapeutic plasma concentration of 1 μM at the steady state” value ([1]; k0 = k1 x Vd x Cp) does the source give for `CC(=O)N[C@H](Cc1ccc(O)cc1)C(=O)N[C@H](CCCNC(=N)N)C(=O)N[C@H](Cc1ccccc1)C(N)=O` [DTP3, Ac-YRF-NH2] here?
**A.** 0.81 mg/kg/h

**Q.** What about the AUC ([1]; mouse, in vivo, iv, 10 mg/kg) of the same compound?
**A.** 6430 ± 10 ng·h/mL

**Q.** What about the Vd ([1]; mouse, in vivo, iv, 10 mg/kg) of the same compound?
**A.** 2.8 ± 1.26 L/kg

**Q.** And the clearance ([1]; mouse, in vivo, iv, 10 mg/kg)?
**A.** 27.1 ± 4.09 mL/min/kg

**Q.** What about the half-life ([1]; mouse, in vivo, iv, 10 mg/kg) of the same compound?
**A.** 1.26 h

**Q.** What about the level at time molar [2] of the same compound?
**A.** 700 ± 90 nM

**Q.** And the logD [3]?
**A.** 1.19 ± 0.29

**Q.** And the solubility thermodynamic [4]?
**A.** 169 ± 7.53 mg/mL (≈ 322 mM)
